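All cell lines were grown in 96-well plates and treated with compound for 48 hours. Abbreviation: GI50, concentration required for 50% inhibition of growth.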 Activity calls are given as the source filed them. Cut-off read from the data, not from the text of the source: active = GI50 up to about 1.1 µM and inactive = higher.
Key:
Test in all cases: DTP human tumour cell line panel, 48 h
[1] = test system: IGROV-1
[2] = test system: M14
[3] = test system: MCF7
[4] = test system: SK-MEL-28
[5] = test system: PC-3
[6] = test system: HCC 2998
[7] = test system: HT-29
[8] = test system: HCT-116
[9] = test system: U-251
[10] = test system: OVCAR-4
[11] = test system: EKVX
[12] = test system: NCI-H522
[13] = test system: SK-MEL-5
[14] = test system: UACC-257
[15] = test system: Malme-3M
[16] = test system: OVCAR-3
[17] = test system: OVCAR-5
[18] = test system: OVCAR-8
[19] = test system: A549
[20] = test system: KM12
[21] = test system: SW-620
[22] = test system: TK-10
[23] = test system: CCRF-CEM
[24] = test system: SNB-75
[25] = test system: SNB-19
[26] = test system: COLO 205
[27] = test system: T47D
[28] = test system: HOP-62
[29] = test system: NCI-H23
[30] = test system: MDA-MB-231
[31] = test system: HCT-15
[32] = test system: DU-145
[33] = test system: MOLT-4
[34] = test system: SF-539
[35] = test system: MDA-N
[36] = test system: ACHN
[37] = test system: NCI/ADR-RES
[38] = test system: BT-549
[39] = test system: MDA-MB-435
[40] = test system: NCI-H226
[41] = test system: 786-0
[42] = test system: HL-60
[43] = test system: SN12C
[44] = test system: SF-295
[45] = test system: HOP-92
[46] = test system: A498
[47] = test system: NCI-H460
[48] = test system: RXF 393
[49] = test system: SR
[50] = test system: LOX IMVI
[51] = test system: Hs-578T
[52] = test system: SF-268
[53] = test system: UACC-62
[54] = test system: CAKI-1
[55] = test system: SK-MEL-2
[56] = test system: SK-OV-3
[57] = test system: UO-31
[58] = test system: K562
[59] = test system: RPMI-8226

SMILES: C/C=C(/C)C(=O)O[C@H]1C(C)=C[C@]23C(=O)[C@@H](C=C(COC(C)=O)[C@@H](O)[C@]12O)[C@H]1[C@@H](C[C@H]3C)[C@@]1(C)OC(=O)/C(C)=C\C
- GI50 [1]: 3.2 µM (inactive)
- GI50 [2]: 2.29 µM (inactive)
- GI50 [3]: 2.35 µM (inactive)
- GI50 [4]: 3.69 µM (inactive)
- GI50 [5]: 1.4 µM (inactive)
- GI50 [6]: 1.49 µM (inactive)
- GI50 [7]: 0.411 µM (active)
- GI50 [8]: 2.14 µM (inactive)
- GI50 [9]: 2.45 µM (inactive)
- GI50 [10]: 2.77 µM (inactive)
- GI50 [11]: 2.9 µM (inactive)
- GI50 [12]: 1.8 µM (inactive)
- GI50 [13]: 0.307 µM (active)
- GI50 [14]: 3.63 µM (inactive)
- GI50 [15]: 0.111 µM (active)
- GI50 [16]: 3.05 µM (inactive)
- GI50 [17]: 3.15 µM (inactive)
- GI50 [18]: 3.72 µM (inactive)
- GI50 [19]: 0.15 µM (active)
- GI50 [20]: 1.32 µM (inactive)
- GI50 [21]: 2.55 µM (inactive)
- GI50 [22]: 2.72 µM (inactive)
- GI50 [23]: 0.486 µM (active)
- GI50 [24]: 1.52 µM (inactive)
- GI50 [25]: 3.01 µM (inactive)
- GI50 [26]: 0.0596 µM (active)
- GI50 [27]: 1.22 µM (inactive)
- GI50 [28]: 2.37 µM (inactive)
- GI50 [29]: 2.42 µM (inactive)
- GI50 [30]: 3.03 µM (inactive)
- GI50 [31]: 2.96 µM
- GI50 [32]: 2.23 µM (inactive)
- GI50 [33]: 0.0449 µM (active)
- GI50 [34]: 2.81 µM (inactive)
- GI50 [35]: 1.17 µM (inactive)
- GI50 [36]: 0.546 µM (active)
- GI50 [37]: 2.65 µM (inactive)
- GI50 [38]: 2.38 µM (inactive)
- GI50 [39]: 2.13 µM (inactive)
- GI50 [40]: 3.07 µM (inactive)
- GI50 [41]: 1.52 µM (inactive)
- GI50 [42]: 0.094 µM (active)
- GI50 [43]: 1.69 µM (inactive)
- GI50 [44]: 1.08 µM (active)
- GI50 [45]: 1.25 µM (inactive)
- GI50 [46]: 2.72 µM (inactive)
- GI50 [47]: 0.0244 µM (active)
- GI50 [48]: 2.65 µM (inactive)
- GI50 [49]: 2.67 µM (inactive)
- GI50 [50]: 3.1 µM (inactive)
- GI50 [51]: 0.0792 µM (active)
- GI50 [52]: 0.655 µM (active)
- GI50 [53]: 2.37 µM (inactive)
- GI50 [54]: 2.75 µM (inactive)
- GI50 [55]: 3 µM (inactive)
- GI50 [56]: 4.19 µM (inactive)
- GI50 [57]: 0.442 µM (active)
- GI50 [58]: 0.0205 µM (active)

SMILES: c1ccc2c3c(ccc2c1)CSCc1ccc2ccccc2c1-3
- GI50 [1]: > 100 µM (inactive)
- GI50 [2]: > 100 µM (inactive)
- GI50 [3]: > 100 µM (inactive)
- GI50 [4]: > 100 µM (inactive)
- GI50 [5]: > 100 µM (inactive)
- GI50 [6]: > 100 µM (inactive)
- GI50 [7]: > 100 µM (inactive)
- GI50 [8]: > 100 µM (inactive)
- GI50 [9]: > 100 µM (inactive)
- GI50 [10]: 26.8 µM (inactive)
- GI50 [11]: > 100 µM (inactive)
- GI50 [12]: > 100 µM (inactive)
- GI50 [13]: > 100 µM (inactive)
- GI50 [14]: 43.5 µM (inactive)
- GI50 [15]: > 100 µM (inactive)
- GI50 [16]: > 100 µM (inactive)
- GI50 [17]: > 100 µM (inactive)
- GI50 [18]: > 100 µM (inactive)
- GI50 [59]: > 100 µM (inactive)
- GI50 [19]: > 100 µM (inactive)
- GI50 [20]: > 100 µM (inactive)
- GI50 [22]: > 100 µM (inactive)
- GI50 [23]: > 100 µM (inactive)
- GI50 [24]: > 100 µM (inactive)
- GI50 [25]: > 100 µM (inactive)
- GI50 [26]: > 100 µM (inactive)
- GI50 [27]: > 100 µM (inactive)
- GI50 [28]: > 100 µM (inactive)
- GI50 [29]: > 100 µM (inactive)
- GI50 [30]: > 100 µM (inactive)
- GI50 [31]: > 100 µM
- GI50 [32]: > 100 µM (inactive)
- GI50 [33]: 36.6 µM (inactive)
- GI50 [34]: 54.1 µM (inactive)
- GI50 [35]: > 100 µM (inactive)
- GI50 [36]: > 100 µM (inactive)
- GI50 [37]: > 100 µM (inactive)
- GI50 [38]: > 100 µM (inactive)
- GI50 [39]: > 100 µM (inactive)
- GI50 [41]: > 100 µM (inactive)
- GI50 [42]: > 10 µM (inactive)
- GI50 [43]: > 100 µM (inactive)
- GI50 [44]: > 100 µM (inactive)
- GI50 [45]: 22.2 µM (inactive)
- GI50 [46]: > 100 µM (inactive)
- GI50 [48]: > 100 µM (inactive)
- GI50 [49]: 33 µM (inactive)
- GI50 [50]: > 100 µM (inactive)
- GI50 [51]: > 100 µM (inactive)
- GI50 [52]: > 100 µM (inactive)
- GI50 [53]: > 100 µM (inactive)
- GI50 [54]: > 100 µM (inactive)
- GI50 [55]: > 100 µM (inactive)
- GI50 [57]: > 100 µM (inactive)
- GI50 [58]: > 100 µM (inactive)

SMILES: COc1cc(C2c3cc(OC)c(OC)c(O)c3C(=O)C3CCC(=O)N32)cc(OC)c1OC (configuration not stated)
- GI50 [1]: > 100 µM (inactive)
- GI50 [2]: > 100 µM (inactive)
- GI50 [3]: > 100 µM (inactive)
- GI50 [4]: > 100 µM (inactive)
- GI50 [5]: > 100 µM (inactive)
- GI50 [6]: > 100 µM (inactive)
- GI50 [7]: 70 µM (inactive)
- GI50 [8]: 93.1 µM (inactive)
- GI50 [9]: 86.7 µM (inactive)
- GI50 [10]: > 100 µM (inactive)
- GI50 [11]: > 100 µM (inactive)
- GI50 [12]: 26 µM (inactive)
- GI50 [13]: 53.1 µM (inactive)
- GI50 [14]: > 100 µM (inactive)
- GI50 [16]: 34.1 µM (inactive)
- GI50 [17]: > 100 µM (inactive)
- GI50 [18]: 25 µM (inactive)
- GI50 [59]: 28.8 µM (inactive)
- GI50 [19]: > 100 µM (inactive)
- GI50 [20]: 48.2 µM (inactive)
- GI50 [21]: 35.6 µM (inactive)
- GI50 [22]: > 100 µM (inactive)
- GI50 [24]: 63.7 µM (inactive)
- GI50 [25]: > 100 µM (inactive)
- GI50 [26]: 24.8 µM (inactive)
- GI50 [27]: > 100 µM (inactive)
- GI50 [28]: > 100 µM (inactive)
- GI50 [30]: 44.1 µM (inactive)
- GI50 [31]: > 100 µM
- GI50 [32]: > 100 µM (inactive)
- GI50 [33]: 25.6 µM (inactive)
- GI50 [34]: > 100 µM (inactive)
- GI50 [35]: 18.2 µM (inactive)
- GI50 [36]: > 100 µM (inactive)
- GI50 [37]: 22 µM (inactive)
- GI50 [38]: 25.2 µM (inactive)
- GI50 [39]: 16.2 µM (inactive)
- GI50 [40]: 10.9 µM (inactive)
- GI50 [41]: > 100 µM (inactive)
- GI50 [42]: 26.4 µM (inactive)
- GI50 [43]: > 100 µM (inactive)
- GI50 [44]: > 100 µM (inactive)
- GI50 [45]: 35.3 µM (inactive)
- GI50 [46]: > 100 µM (inactive)
- GI50 [47]: > 100 µM (inactive)
- GI50 [49]: 89.7 µM (inactive)
- GI50 [50]: 40.8 µM (inactive)
- GI50 [51]: 56.4 µM (inactive)
- GI50 [52]: 69.8 µM (inactive)
- GI50 [53]: 64 µM (inactive)
- GI50 [54]: > 100 µM (inactive)
- GI50 [55]: > 100 µM (inactive)
- GI50 [56]: 63 µM (inactive)
- GI50 [58]: 29.3 µM (inactive)
